Laboratory results published in ChEMBL document CHEMBL1122778, “A mechanism for the addition of multiple moles of glutamate by folylpolyglutamate synthetase” (J Med Chem, 1984).

What was measured:
[1] = target: T1, Folylpolyglutamate synthase, mitochondrial (Mus musculus) (UniProt P48760); assay: Compound was evaluated for reaction rate of compound in mouse liver Folyl-polyglutamate synthase ([3H]L-glutamate incorporated)
T1 sequence (whole entry): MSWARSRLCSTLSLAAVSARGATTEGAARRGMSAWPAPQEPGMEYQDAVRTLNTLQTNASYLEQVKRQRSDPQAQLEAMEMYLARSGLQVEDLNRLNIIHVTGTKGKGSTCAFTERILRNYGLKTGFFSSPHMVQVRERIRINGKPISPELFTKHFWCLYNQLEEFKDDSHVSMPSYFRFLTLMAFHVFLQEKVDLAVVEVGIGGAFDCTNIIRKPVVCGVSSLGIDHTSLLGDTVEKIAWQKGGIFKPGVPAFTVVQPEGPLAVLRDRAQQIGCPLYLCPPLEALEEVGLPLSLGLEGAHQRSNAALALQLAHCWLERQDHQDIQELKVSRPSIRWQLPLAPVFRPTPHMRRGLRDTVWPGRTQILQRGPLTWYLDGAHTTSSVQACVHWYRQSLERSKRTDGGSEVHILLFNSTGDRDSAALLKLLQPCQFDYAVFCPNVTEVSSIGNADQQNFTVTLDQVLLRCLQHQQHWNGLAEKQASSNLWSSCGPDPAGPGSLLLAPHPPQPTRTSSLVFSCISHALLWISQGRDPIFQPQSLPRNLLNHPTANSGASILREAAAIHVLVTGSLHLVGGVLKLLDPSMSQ

[2] = target: T1, Folylpolyglutamate synthase, mitochondrial (Mus musculus); assay: Concentration required go get half the maximal reaction with Folyl-polyglutamate synthase
[3] = target: T1, Folylpolyglutamate synthase, mitochondrial (Mus musculus); assay: Compound was evaluated for reaction rate of compound in mouse liver Folyl-polyglutamate synthase for 1 hr at a conc of 500 uM ([3H]L-glutamate incorporated)

Reaction rate [1]	Concentration [2]	Reaction rate [3]	Structure (SMILES)
1.23 nM/h	–	–	CN(Cc1cnc2nc(N)nc(N)c2n1)c1ccc(C(=O)NC(CCC(=O)NC(CCC(=O)O)C(=O)O)C(=O)O)cc1.CN(Cc1cnc2nc(N)nc(N)c2n1)c1ccc(C(=O)NC(CCC(=O)O)C(=O)O)cc1 (stereo not given)
1.71 nM/h	47 µM	–	CN(Cc1cnc2nc(N)nc(N)c2n1)c1ccc(C(=O)N[C@@H](CCC(=O)O)C(=O)O)cc1
–	163 µM	0.7 nM/h	CN(Cc1cnc2nc(N)nc(N)c2n1)c1ccc(C(=O)NC(CCC(=O)NC(CCC(=O)O)C(=O)O)C(=O)O)cc1 (stereo not given)
